Laboratory results as given in patent publication US20080058310A1, “High-density lipoprotein-cholesterol level elevating agent” (Takeda Pharmaceutical Company Limited, priority 2000, published 2008).

Columns and labels:
[1] = system: WHHL (Watanabe heritable hyperlipidemic) rabbits; assay: Blood lipid levels in WHHL (LDL receptor-deficient) rabbits fed the compound in feedstuff for 14 days (Test Example 2); type: in vivo, rabbit; conditions: Means ± SEM (n = 6)
Description: WHHL (Watanabe heritable hyperlipidemic) rabbits (2 to 3 months-old, four male, eight female), LDL receptor-deficient animal were used. The body weight was measured. Blood was then taken from the ear central artery, and the total cholesterol (TC) and triglyceride (TG) in blood plasma were measured using Wako Pure Chemical kit (manufactured by Wako Pure Chemicals, Inc.) and an autoanalyzer (Hitachi 7070). The animals were divided into two groups, each of which consisted of six animals. The subject compound was mixed with a basic feedstuff (RC-4, Oriental Yeast, Co., Ltd) in an amount of 0.2%, and the mixed feedstuff was fed to the animals in an amount of 120 g per a day (corresponds to the amount of 100 mg/kg/day). To the control group was fed basic feedstuff in an amount of 120 g per a day. The blood lipid levels at the starting of administration and after finishing the administration for 14 days are shown in Table 2 and Table 3, respectively.

[2] = system: common marmosets; assay: Plasma lipid change in common marmosets after four days of oral administration (Test Example 1); type: in vivo, common marmoset; conditions: male common marmosets, 100 mg/kg/day oral once a day for four days, blood plasma on fifth day, Means ± SEM (N = 5)
Description: Male common marmosets (300-500 g) were bred while feeding normal feed (CMS-1, CLEA Japan, Inc.) and water freely. The body weight was measured. Blood was taken from the femoral vein, and the total cholesterol (TC), HDL-cholesterol (HDL-C) and triglyceride (TG) in blood plasma were measured using Wako Pure Chemical kit (manufactured by Wako Pure Chemicals, Inc.) and an autoanalyzer (Hitachi 7070). The animals were devided into groups, each of which consisted of five animals. The subject compound, as a suspension in 0.5% methylcellulose, was forced oral administration to the animals once a day and for four days. On the morning of the fifth day, the body weight was measured. Blood was then taken from the femoral vein, and the total cholesterol, triglyceride and HDL-cholesterol in blood plasma were measured according to the above-mentioned method. The non-HDL-C was calculated by subtracting the HDL-cholesterol from the total cholesterol.

[3] = 0.2% in feed (corresponds to 100 mg/kg/day), after 14 days relative to initial
[4] = 0.2% in feed (corresponds to 100 mg/kg/day), after administration for 14 days
[5] = blood plasma at the starting of administration (baseline) of the 0.2% in feed group

SMILES: COc1cccc([C@H]2O[C@H](CC(=O)N3CCC(CC(=O)O)CC3)C(=O)N(CC(C)(C)COC(C)=O)c3ccc(Cl)cc32)c1OC [subject compound, N-[[(3R,5S)-1-(3-acetoxy-2,2-dimethylpropyl)-7-chloro-5-(2,3-dimethoxyphenyl)-2-oxo-1,2,3,5-tetrahydro-4,1-benzoxazepin-3-yl]acetyl]piperidine-4-acetic acid]
- TC % of initial [1, 3]: 85 ± 2 %
- TG % of initial [1, 3]: 40 ± 3 %
- TC (mg/dL) end [1, 4]: 715 ± 36 mg/dL
- TG (mg/dL) end [1, 4]: 107 ± 10 mg/dL
- TC (mg/dL) initial [1, 5]: 838 ± 45 mg/dL
- TG (mg/dL) initial [1, 5]: 272 ± 24 mg/dL
- HDL-C (%-change) [2]: 16.2 ± 10%
- TG (%-change) [2]: −37.6 ± 17%
- Non-HDL-C (%-change) ([2]; non-HDL-C = total cholesterol minus HDL-cholesterol): −40.4 ± 4 %
